The record followed here is paper PMC9457740, “GC-MS Chemical Profiling, Biological Investigation of Three Salvia Species Growing in Uzbekistan” (Molecules, 2022).

Molecules are shown by their SMILES.

Format in all cases: biochemical
Assay [1] is described as follows: metal chelating assay (EDTA chelating activity). The conditions noted are these: mean ± S.D.; NA: not active. The text has this: (§1) Six in vitro assays were employed to evaluate the antioxidant activity of the three Salvia EOs. These were radical scavenging activity using 2,2-diphenyl-1-picryl-hydrazyl (DPPH), 2,2′-azino-bis(3-ethylbenzothiazoline-6-sulfonic acid) (ABTS) radical cation-based assay, total antioxidant capacity using cupric-reducing antioxidant capacity assay (CUPRAC), ferric-reducing antioxidant power assay (FRAP), EDTA chelating activity and phosphomolybdenum (PBD) assay.
(§2) In vitro assays were employed to evaluate the antioxidant activity of the three Salvia EOs using the 2,2-diphenyl-1-picryl-hydrazyl (DPPH), 2,2′-azino-bis(3-ethylbenzothiazoline-6-sulfonic acid) (ABTS) radical-cation-based assay, total antioxidant capacity using cupric-reducing antioxidant capacity assay (CUPRAC), ferric-reducing antioxidant power assay (FRAP), EDTA chelating activity and phosphomolybdenum (PBD) assay. These assays were performed according to previously described standard procedures, and values are expressed as Trolox or EDTA equivalent. The experimental procedures are given in supplemental materials. To provide a comparison with standard compounds, IC50 values (the half inhibitory concentration) were also calculated for DPPH, ABTS and metal chelating assays.

Assay [2] is described as follows: ABTS radical cation-based assay. Conditions: mean ± S.D.
From the text: as §1, §2

Assay [3] is described as follows: cupric-reducing antioxidant capacity assay (CUPRAC). Conditions: concentration at which absorbance is 0.5; mean ± S.D.
From the text: as §1, §2

Assay [4] can be described thus: phosphomolybdenum (PBD) assay. Conditions: concentration at which absorbance is 0.5; mean ± S.D.
From the text: as §1, §2

Assay [5] can be described thus: ferric-reducing antioxidant power assay (FRAP). The conditions noted are these: concentration at which absorbance is 0.5; mean ± S.D.
From the text: as §1, §2

Assay [6] is described as follows: DPPH radical scavenging assay. The conditions noted are these: mean ± S.D. of three measurements; NA: not active.
From the text: as §1, §2
(The DPPH test is a chemical assay of radical scavenging.)

Turning to `O=C(O)CN(CCN(CC(=O)O)CC(=O)O)CC(=O)O` [EDTA], in assay [1], the “Chelating IC50” value came to 40 ± 10 µg/mL.

Turning to `Cc1c(C)c2c(c(C)c1O)CCC(C)(C(=O)O)O2` (stereo not drawn) [Trolox], the “ABTS IC50” value in assay [2] is 650 ± 90 µg/mL. Further, the “CUPRAC IC50” value in assay [3] is 440 ± 20 µg/mL. Further, in assay [4], the “PBD IC50” value came to 680 ± 10 µg/mL. Besides, the “FRAP IC50” value in assay [5] worked out at 170 ± 10 µg/mL. Moreover, the “DPPH IC50” value in assay [6] is 220 ± 10 µg/mL.
